Measured values published in patent publication US5075289A, “9-R-azacyclic erythromycin antibiotics” (priority 1988, dated 1991).
In brackets after ≈: the same amount, converted by molar mass. Like-named read-outs stand apart in the source and are kept apart here.

Tests used:
Format in all cases: cell-based
[1] = tested on: Haemophilus influenzae SPK AMP R; experiment: In vitro antibacterial activity, agar dilution MIC; details: H. influenzae SPK AMP R
Description: (§1) The antimicrobial spectra of a number of compounds of the invention were tested by the following method:
(§2) Twelve petri dishes containing successive aqueous dilutions of the test compound mixed with 10 ml of sterilized Brain Heart Infusion agar (Difco 0418-01-5) are prepared. Each plate is inoculated with 1:100 (or 1:10 for slow growing strains, primarily Micrococcus and Streptococcus) dilutions of up to 32 different microorganisms, using a Steers replicator block The inoculated plates are incubated at 35°-37° C. for 20-24 hours. In addition, a control plate, using BHI agar containing no test compound, is prepared and incubated at the beginning and end of each test.
(§3) An additional plate containing a compound having known susceptibility patterns for the organisms being tested and belonging to the same antibiotic class as the test compound is also prepared and incubated as a further control, as well as to provide test-to-test comparability. Erythromycin A was used for this purpose.
(§4) After incubation, each disk is read. The MIC is defined as the lowest concentration of drug yielding no growth, a slight haze, or sparsely isolated colonies on the inoculum spot as compared to the growth control.

[2] = tested on: Haemophilus influenzae 503B; experiment: In vitro antibacterial activity, agar dilution MIC; details: H. influenzae 503B
Description: as §1, §2, §3, §4

[3] = tested on: Haemophilus influenzae 1177; experiment: In vitro antibacterial activity, agar dilution MIC; details: H. influenzae 1177
Description: as §1, §2, §3, §4

[4] = tested on: Staphylococcus epidermidis 3519; experiment: In vitro antibacterial activity, agar dilution MIC; details: S. epidermidis 3519, Brain Heart Infusion agar, 20-24 hours, read-out: MIC
Description: as §1, §2, §3, §4

[5] = tested on: Haemophilus influenzae ATCC 9795; experiment: In vitro antibacterial activity, agar dilution MIC; details: ATCC9795, H. influenzae ATCC 9795
Description: as §1, §2, §3, §4

[6] = tested on: Haemophilus influenzae 667A; experiment: In vitro antibacterial activity, agar dilution MIC; details: H. influenzae 667A
Description: as §1, §2, §3, §4

[7] = tested on: Streptococcus agalactiae CMX 508; experiment: In vitro antibacterial activity, agar dilution MIC; details: CMX508, S. agalactiae CMX 508, Brain Heart Infusion agar, 20-24 hours, read-out: MIC
Description: as §1, §2, §3, §4

[8] = tested on: Streptococcus pyogenes 2548 INDUC; experiment: In vitro antibacterial activity, agar dilution MIC
Description: as §1, §2, §3, §4

[9] = tested on: Streptococcus pyogenes EES61; experiment: In vitro antibacterial activity, agar dilution MIC; details: S. pyogenes EES61, Brain Heart Infusion agar, 20-24 hours, read-out: MIC
Description: as §1, §2, §3, §4

[10] = tested on: Staphylococcus aureus 45; experiment: In vitro antibacterial activity, agar dilution MIC; details: S. aureus 45, Brain Heart Infusion agar, 20-24 hours, read-out: MIC
Description: as §1, §2, §3, §4

[11] = tested on: Haemophilus influenzae 632A; experiment: In vitro antibacterial activity, agar dilution MIC; details: H. influenzae 632A
Description: as §1, §2, §3, §4

[12] = tested on: Streptococcus bovis A5169; experiment: In vitro antibacterial activity, agar dilution MIC; details: read-out: MIC
Description: as §1, §2, §3, §4

[13] = tested on: Micrococcus luteus ATCC 4698; experiment: In vitro antibacterial activity, agar dilution MIC; details: ATCC4698, read-out: MIC
Description: as §1, §2, §3, §4

[14] = tested on: Haemophilus influenzae 1435; experiment: In vitro antibacterial activity, agar dilution MIC; details: H. influenzae 1435
Description: as §1, §2, §3, §4

[15] = tested on: Staphylococcus aureus 642A; experiment: In vitro antibacterial activity, agar dilution MIC; details: S. aureus 642A, Brain Heart Infusion agar, 20-24 hours, read-out: MIC
Description: as §1, §2, §3, §4

[16] = tested on: Enterococcus faecium ATCC 8043; experiment: In vitro antibacterial activity, agar dilution MIC; details: ATCC8043
Description: as §1, §2, §3, §4

[17] = tested on: Haemophilus influenzae 747C; experiment: In vitro antibacterial activity, agar dilution MIC; details: H. influenzae 747C
Description: as §1, §2, §3, §4

[18] = tested on: Escherichia coli Juhl; experiment: In vitro antibacterial activity, agar dilution MIC
Description: as §1, §2, §3, §4

[19] = tested on: Haemophilus influenzae 751; experiment: In vitro antibacterial activity, agar dilution MIC; details: H. influenzae 751
Description: as §1, §2, §3, §4

[20] = tested on: Escherichia coli H560; experiment: In vitro antibacterial activity, agar dilution MIC; details: E. coli H560, Brain Heart Infusion agar, 20-24 hours, read-out: MIC
Description: as §1, §2, §3, §4

[21] = tested on: Escherichia coli SS; experiment: In vitro antibacterial activity, agar dilution MIC; details: read-out: MIC
Description: as §1, §2, §3, §4

[22] = tested on: Haemophilus influenzae ATCC 10211; experiment: In vitro antibacterial activity, agar dilution MIC; details: ATCC10211, H. influenzae ATCC 10211
Description: as §1, §2, §3, §4

[23] = tested on: Haemophilus influenzae DILL AMP R; experiment: In vitro antibacterial activity, agar dilution MIC; details: H. influenzae DILL AMP R
Description: as §1, §2, §3, §4

[24] = tested on: Staphylococcus aureus CMX 553; experiment: In vitro antibacterial activity, agar dilution MIC; details: CMX553, S. aureus CMX 553, Brain Heart Infusion agar, 20-24 hours, read-out: MIC
Description: as §1, §2, §3, §4

[25] = tested on: Haemophilus influenzae 504; experiment: In vitro antibacterial activity, agar dilution MIC; details: H. influenzae 504
Description: as §1, §2, §3, §4

[26] = tested on: Micrococcus luteus ATCC 9341; experiment: In vitro antibacterial activity, agar dilution MIC; details: ATCC9341, M. luteus ATCC 9341, Brain Heart Infusion agar, 20-24 hours, read-out: MIC
Description: as §1, §2, §3, §4

[27] = tested on: Staphylococcus aureus ATCC 6538P; experiment: In vitro antibacterial activity, agar dilution MIC; details: ATCC6538P
Description: as §1, §2, §3, §4

[28] = tested on: Escherichia coli DC-2; experiment: In vitro antibacterial activity, agar dilution MIC; details: DC2
Description: as §1, §2, §3, §4

[29] = tested on: Haemophilus influenzae SOL AMP R; experiment: In vitro antibacterial activity, agar dilution MIC; details: H. influenzae SOL AMP R
Description: as §1, §2, §3, §4

[30] = tested on: Staphylococcus aureus A5177; experiment: In vitro antibacterial activity, agar dilution MIC; details: S. aureus A5177, Brain Heart Infusion agar, 20-24 hours, read-out: MIC
Description: as §1, §2, §3, §4

[31] = tested on: Staphylococcus aureus NCTC 10649; experiment: In vitro antibacterial activity, agar dilution MIC; details: NCTC10649, S. aureus NCTC 10649, Brain Heart Infusion agar, 20-24 hours, read-out: MIC
Description: as §1, §2, §3, §4

[32] = tested on: Haemophilus influenzae 519A; experiment: In vitro antibacterial activity, agar dilution MIC; details: H. influenzae 519A
Description: as §1, §2, §3, §4

[33] = tested on: Streptococcus pyogenes 930 CONST; experiment: In vitro antibacterial activity, agar dilution MIC; details: 930CONST
Description: as §1, §2, §3, §4

[34] = tested on: Haemophilus influenzae ATCC 19418; experiment: In vitro antibacterial activity, agar dilution MIC; details: ATCC19418, H. influenzae ATCC 19418
Description: as §1, §2, §3, §4

[35] = tested on: Haemophilus influenzae 566A; experiment: In vitro antibacterial activity, agar dilution MIC; details: H. influenzae 566A
Description: as §1, §2, §3, §4

[36] = tested on: Haemophilus influenzae 588A; experiment: In vitro antibacterial activity, agar dilution MIC; details: H. influenzae 588A
Description: as §1, §2, §3, §4

[37] = tested on: Staphylococcus aureus 45 RAR 2; experiment: microbe, parasite or virus in culture; details: 45RAR2
Description: as §1, §2, §3, §4

SMILES	MIC [1] [µg/mL]	MIC [2] [µg/mL]	MIC [3] [µg/mL]	MIC [4] [µg/mL]	MIC [5] [µg/mL]	MIC [6] [µg/mL]	MIC [7] [µg/mL]	MIC [9] [µg/mL]	MIC [10] [µg/mL]	MIC [11] [µg/mL]	MIC [13] [µg/mL]	MIC [14] [µg/mL]	MIC [15] [µg/mL]	MIC [16] [µg/mL]	MIC [17] [µg/mL]	MIC [18] [µg/mL]	MIC [19] [µg/mL]	MIC [20] [µg/mL]	MIC [21] [µg/mL]	MIC [22] [µg/mL]	also measured
CC[C@H]1OC(=O)[C@H](C)[C@@H](O[C@H]2C[C@@](C)(OC)[C@@H](O)[C@H](C)O2)[C@H](C)[C@@H](O[C@@H]2O[C@H](C)C[C@H](N(C)C)[C@H]2O)[C@](C)(O)C[C@@H](C)[C@@H](N2CCC(C)CC2)[C@H](C)[C@@H](O)[C@]1(C)O [Example 6]	1 (≈ 1.22 µM)	1 (≈ 1.22 µM)	0.25 (≈ 0.306 µM)	0.39 (≈ 0.477 µM)	1 (≈ 1.22 µM)	2 (≈ 2.45 µM)	0.1 (≈ 0.122 µM)	0.1 (≈ 0.122 µM)	0.2 (≈ 0.245 µM)	1 (≈ 1.22 µM)	0.2 (≈ 0.245 µM)	1 (≈ 1.22 µM)	0.39 (≈ 0.477 µM)	0.1 (≈ 0.122 µM)	1 (≈ 1.22 µM)	12.5 (≈ 15.3 µM)	1 (≈ 1.22 µM)	3.1 (≈ 3.79 µM)	0.2 (≈ 0.245 µM)	1 (≈ 1.22 µM)	MIC ([8]; 2548INDUC): 3.1 µg/mL (≈ 3.79 µM); MIC [12]: 0.02 µg/mL (≈ 0.0245 µM); MIC [23]: 1 µg/mL (≈ 1.22 µM); MIC [24]: 0.39 µg/mL (≈ 0.477 µM); MIC [25]: 1 µg/mL (≈ 1.22 µM); MIC [26]: 0.05 µg/mL (≈ 0.0612 µM); MIC [27]: 0.39 µg/mL (≈ 0.477 µM); MIC [28]: 25 µg/mL (≈ 30.6 µM); MIC [29]: 1 µg/mL (≈ 1.22 µM); MIC [30]: 3.1 µg/mL (≈ 3.79 µM); MIC [31]: 0.78 µg/mL (≈ 0.955 µM); MIC [32]: 0.5 µg/mL (≈ 0.612 µM); MIC [33]: > 100 µg/mL; MIC [34]: 2 µg/mL (≈ 2.45 µM); MIC [35]: 2 µg/mL (≈ 2.45 µM); MIC [36]: 1 µg/mL (≈ 1.22 µM); MIC [37]: 0.78 µg/mL (≈ 0.955 µM)
CC[C@H]1OC(=O)[C@H](C)[C@@H](O[C@H]2C[C@@](C)(OC)[C@@H](O)[C@H](C)O2)[C@H](C)[C@@H](O[C@@H]2O[C@H](C)C[C@H](N(C)C)[C@H]2O)[C@](C)(O)C[C@@H](C)[C@@H](N2CCC(C)(C)CC2)[C@H](C)[C@@H](O)[C@]1(C)O [Example 7]	1 (≈ 1.2 µM)	1 (≈ 1.2 µM)	0.25 (≈ 0.301 µM)	0.39 (≈ 0.469 µM)	1 (≈ 1.2 µM)	1 (≈ 1.2 µM)	≤ 0.05	0.1 (≈ 0.12 µM)	0.2 (≈ 0.241 µM)	1 (≈ 1.2 µM)	0.2 (≈ 0.241 µM)	0.5 (≈ 0.602 µM)	0.39 (≈ 0.469 µM)	0.1 (≈ 0.12 µM)	1 (≈ 1.2 µM)	12.5 (≈ 15 µM)	1 (≈ 1.2 µM)	3.1 (≈ 3.73 µM)	0.2 (≈ 0.241 µM)	1 (≈ 1.2 µM)	MIC ([8]; S. pyogenes 2548 INDUC, Brain Heart Infusion agar, 20-24 hours, read-out: MIC): 6.2 µg/mL (≈ 7.46 µM); MIC ([12]; S. bovis A5169, Brain Heart Infusion agar, 20-24 hours): ≤ 0.05 µg/mL; MIC [23]: 1 µg/mL (≈ 1.2 µM); MIC [24]: 0.39 µg/mL (≈ 0.469 µM); MIC [25]: 1 µg/mL (≈ 1.2 µM); MIC [26]: ≤ 0.05 µg/mL; MIC [27]: 0.39 µg/mL (≈ 0.469 µM); MIC [28]: 12.5 µg/mL (≈ 15 µM); MIC [29]: 0.5 µg/mL (≈ 0.602 µM); MIC [30]: 3.1 µg/mL (≈ 3.73 µM); MIC [31]: 0.39 µg/mL (≈ 0.469 µM); MIC [32]: 0.5 µg/mL (≈ 0.602 µM); MIC [33]: > 100 µg/mL; MIC [34]: 2 µg/mL (≈ 2.41 µM); MIC [35]: 2 µg/mL (≈ 2.41 µM); MIC [36]: 1 µg/mL (≈ 1.2 µM); MIC [37]: 0.39 µg/mL (≈ 0.469 µM)
